20 compounds from patent publication US5543425A, “Method of inhibiting platelet aggregation using phenyl amidine thio derivatives” (G. D. Searle & Co., priority 1994, dated 1996) can be followed below.

The test system of the experiment is platelet aggregation in dog PRP. Put plainly: In-Vitro Platelet Aggregation in PRP (collagen-induced). Particulars: Canis lupus familiaris; for inhibition at 10 µM: Test Concentration 1 × 10^-5 (10 μM), dog PRP, collagen 33.3 μg/m final; for IC50: dog platelet-rich plasma, collagen-induced aggregation. Type of experiment: cell-based. Here is the method: Compounds of the invention were evaluated by an in vitro assay to determine compound activity as an inhibitors of platelet aggregation.
In-Vitro Platelet Aggregation in PRP
Healthy male or female dogs were fasted for 8 hours prior to drawing blood; then 30 ml whole blood from jugular vein was collected using a butterfly needle and 30 ml plastic syringe with 3 ml of 0.129 M buffered sodium citrate (3.8%). The syringe was rotated carefully as blood was drawn to mix the citrate. The whole blood was transferred to a 50 ml Corning Conical sterile centrifuge tube. Platelet-rich plasma (PRP) was prepared by centrifugation at 975×g for 3.17 minutes at room temperature, allowing the centrifuge to coast to a stop without braking. The PRP was removed from the blood with a plastic pipette and placed in a plastic capped, 50 ml Corning conical sterile centrifuge tube which was held at room temperature. Platelet poor plasma (PPP) was prepared by centrifuging the remaining blood at 2000×g for 15 minutes at room temperature allowing the centrifuge to coast to a stop without braking. The PRP platelet count was typically a count of 2.5-4×10^8 platelets per ml. 400 μL of the PRP preparation and 50 μL of the compound to be tested or saline were preincubated for 2 minutes at 37° C. in a BioData aggregometer (BioData, Horsham, PA). 50 μL of Collagen (equine tendon, Chronolog, Hayertown, PA) [33.3 μg/m, final concentration] was added to the cuvettes and the aggregation was monitored for 4 minutes. All compounds are tested in duplicate. Inhibition of aggregation for each sample was determined using the formula: % of inhibition=100-% of control and % of control=(Tinh -Tbas)/(Tag -Tbas) ×100, where Tbas is % of light transmission in PRP (baseline), Tagg is % of light transmission in the aggregated PRP sample (saline control) and Tinh is % of light transmission in the sample containing the inhibitor.

For orientation: inhibition means the drop in the measured response relative to a control, in per cent. The term IC50 denotes the point on the concentration scale where inhibition reaches its midpoint. Read a high IC50 as weaker potency in that assay.

The structures appear in SMILES notation.

`N=C(N)c1ccc(CCCCC(=O)NC(CC[S+]([O-])Cc2ccccc2)CC(=O)O)cc1` (racemic) [(±)-3-[[5-[4-(aminoiminomethyl)phenyl]-1-oxopentyl]amino]-5-[(phenylmethyl)sulfinyl]pentanoic acid]: the inhibition at 10 µM came to 100% and half-maximal inhibition (IC50) was put at 100 nM.
Compound `C[S+]([O-])CCC(CC(=O)O)NC(=O)CCCCc1ccc(C(=N)N)cc1` (racemic) [(±)-3-[[5-[4-(aminoiminomethyl)phenyl]-1-oxopentyl]amino]-5-(methylsulfinyl) pentanoic acid] displayed an inhibition at 10 µM of 100% and an IC50 of 1500 nM.
Turning to `Cc1ccc(S(=O)(=O)CCNC(=O)CCCCc2ccc(C(=N)N)cc2)cc1` [4-(aminoiminomethyl)-N-[2-[(4-methylphenyl)sulfonyl]ethylbenzenepentanamide], the inhibition at 10 µM was determined as 23%.
Consider `CCOC(=O)CC(CSc1ccccc1)NC(=O)CCCCc1ccc(C(=N)N)cc1` (racemic) [(±)-ethyl 3-[[5-[[4-(aminoiminomethyl)phenyl]-1-oxopentyl]amino]-4-(4-phenylthio) butanoate], for which 10 µM produced 0% inhibition.
Still for that read-out and setting: the same measure for `Cc1ccc([S+]([O-])CCNC(=O)CCCCc2ccc(C(=N)N)cc2)cc1` (centres unmarked) [4-(aminoiminomethyl)-N-[2-[(4-methylphenyl)sulfinyl]ethylbenzenepentanamide]: 0%.
For `CSCCC(CC(=O)O)NC(=O)CCCCc1ccc(C(=N)N)cc1` (racemic) [(±)-3-[[5-[4-(aminoiminomethyl)phenyl]-1-oxopentyl]amino]-5-(methylthio) pentanoic acid], the inhibition at 10 µM turned out to be 100% and the IC50 came out at 1300 nM.
`N=C(N)c1ccc(CCCCC(=O)NC(CC(=O)O)CS(=O)(=O)c2ccccc2)cc1` (racemic) [(±)-3-[[5-[4-(aminoiminomethyl)phenyl]-1-oxopentyl]amino]-4-(phenylsulfonyl)butanoic acid] registered an inhibition at 10 µM of 100% and an IC50 of 28 nM.
Compound `N=C(N)c1ccc(CCCCC(=O)NC(CSc2ccc(F)cc2)CC(=O)O)cc1` (racemic) [(±)-3-[[5-[4-(aminoiminomethyl)phenyl]-1-oxopentyl]amino]-4-[(4-fluorophenyl)thio]butanoic acid] displayed an inhibition at 10 µM of 100% and an IC50 of 1800 nM.
`N=C(N)c1ccc(CCCCC(=O)NC(CC(=O)O)CS(=O)(=O)c2ccc(F)cc2)cc1` (racemic) [(±)-3-[[5-[4-(aminoiminomethyl)phenyl]-1-oxopentyl]amino]-4-[[(4-fluorophenyl)]sulfonyl]butanoic acid] gave an inhibition at 10 µM of 100% and an IC50 of 120 nM.
Compound `COc1ccc(S(=O)(=O)CC(CC(=O)O)NC(=O)CCCCc2ccc(C(=N)N)cc2)cc1` (racemic) [(±)-3-[[5-[4-(aminoiminomethyl)phenyl]-1-oxopentyl]amino]-4-[(4-methoxyphenyl)sulfonyl]butanoic acid] gave an inhibition at 10 µM of 100% and a half-inhibitory concentration (IC50) of 130 nM.
On to `CC(C)OC(=O)CC(CS(=O)(=O)c1ccccn1)NC(=O)CCCCc1ccc(C(=N)N)cc1` (stereo not drawn) [1-methylethyl 3S-[[5-[4-(aminoiminomethyl)phenyl]-1-oxopentyl]amino]-4-(2-pyridinylsulfonyl)butanoate], for which 10 µM produced 28% inhibition.
Compound `N=C(N)c1ccc(CCCCC(=O)NC(CC(=O)O)CS(=O)(=O)c2ccccn2)cc1` (racemic) [(±)-3-[[5-[4-(aminoiminomethyl)phenyl]-1-oxopentyl]amino]-4-(2-pyridinylsulfonyl)butanoic acid] registered an inhibition at 10 µM of 100%.
Compound `N=C(N)c1ccc(CCCCC(=O)NC(CSc2ccccc2)CC(=O)O)cc1` (racemic) [(±)-3-[[5-[4-(aminoiminomethyl)phenyl]-1-oxopentyl]amino]-4-(phenylthio) butanoic acid] gave an inhibition at 10 µM of 100% and a half-maximal inhibitory concentration (IC50) of 500 nM.
Take `Cc1ccc(S(=O)(=O)CC(CC(=O)O)NC(=O)CCCCc2ccc(C(=N)N)cc2)cc1` (racemic) [(+)-3-[[5-[4-(aminoiminomethyl)phenyl]-1-oxopentyl]amino]-4-[[(4-methylphenyl)sulfonyl]butanoic acid]: the inhibition at 10 µM is 100%.
Compound `N=C(N)c1ccc(CCCCC(=O)NC(CCS(=O)(=O)Cc2ccccc2)CC(=O)O)cc1` (racemic) [(±)-3-[[5-[4-(aminoiminomethyl)phenyl]-1-oxopentyl]amino]-5[(phenylmethyl)sulfonyl]pentanoic acid] yielded an inhibition at 10 µM of 100% and an IC50 of 220 nM.
The compound `CCOC(=O)CC(CC[S+]([O-])Cc1ccccc1)NC(=O)CCCCc1ccc(C(=N)N)cc1` (racemic) [(+)-ethyl 3-[[5-[4-aminoiminomethyl)phenyl]-1-oxopentyl]amino]-5-[(phenylmethyl)sulfinyl]pentanoate] came in with an inhibition at 10 µM of 100% and an IC50 of 420 nM.
`CCOC(=O)CC(C[S+]([O-])c1ccccc1)NC(=O)CCCCc1ccc(C(=N)N)cc1` (racemic) [(±)-ethyl 3-[[5-[4-(aminoiminomethyl)phenyl]-1-oxopentyl]amino]-4-(4-phenylsulfinyl)butanoate] showed an inhibition at 10 µM of 0%.
Consider `CCOC(=O)CC(CS(=O)(=O)c1ccccc1)NC(=O)CCCCc1ccc(C(=N)N)cc1` (racemic) [(±)-ethyl 3-[[5-[4-(aminoiminomethyl)phenyl]-1-oxopentyl]amino]-4-(phenylsulfonyl)butanoate], for which the inhibition at 10 µM was 3%.
For the compound `N=C(N)c1ccc(CCCCC(=O)NC(CC(=O)O)C[S+]([O-])c2ccccc2)cc1` (racemic) [(±)-3-[[5-[4-(aminoiminomethyl)phenyl]-1-oxopentyl]amino]-4-[(phenylsulfinyl)butanoic acid], the inhibition at 10 µM turned out to be 100% and half-maximal inhibition (IC50) required 200 nM.
In turn, `CS(=O)(=O)CCC(CC(=O)O)NC(=O)CCCCc1ccc(C(=N)N)cc1` (racemic) [(±)-3-[[5-[4-(aminoiminomethyl)phenyl]-1-oxopentyl]amino]-5-(methylsulfonyl)pentanoic acid] showed an inhibition at 10 µM of 100% and a half-maximal inhibitory concentration (IC50) of 700 nM.
